{"source": "patent US4477659A", "about": "“Cephalosporin compound” (Asahi Kasei Kogyo Kabushiki Kaisha, priority 1981, dated 1984)", "key": {"[1]": {"experiment": "Absorption test, oral, rats, solution in buffer pH 7 (Example 16)", "type": "in vivo, Male Wistar rats", "conditions": "blood, 50 mg/kg oral, rat, average of 6, read-out: Blood Concentration of the Compound", "procedure": "The absorption test of the compounds as obtained in Examples 1-11 were tested by the following method.\nMale Wistar rats weighing 180-250 g were fed with only water overnight. The next day the rats were orally administered with 50 mg/kg of a test compound which was dissolved in a buffer solution having pH of 7. The concentration of the compound in blood of the tested animals (one group consisting of 6 animals) was measured 0.5, 1, 2 and 4 hours after the administration by Bioassay method by using Bacillus subtilis ATCC 6633 strain as an indicator bacteria. In the measurement, an ordinary culture medium was employed, and the preparation of the standard solution and other method were carried out in according to Japanese Antibiotical Pharmaceutical Standards. Further, the concentration of the compound in blood was also measured by high performance liquid chromatography. The blood concentration shown below was an average value of each animal group."}, "[2]": {"tested_on": "E. Coli W3630 ps 3", "experiment": "MIC (Table 4)", "type": "cell-based", "conditions": "10^8 cells/ml; unit assumed", "description": "(§1) | MIC Value (10^8 cells/ml)"}, "[3]": {"tested_on": "E. Coli W3630", "experiment": "MIC (Table 4)", "type": "cell-based", "conditions": "10^8 cells/ml; unit assumed", "description": "as §1"}, "[4]": {"tested_on": "Staph. aureus MS 27", "experiment": "MIC (Table 4)", "type": "cell-based", "conditions": "10^8 cells/ml; unit assumed", "description": "as §1"}, "[5]": {"tested_on": "Staph. aureus 0003", "experiment": "MIC (Table 4)", "type": "cell-based", "conditions": "10^8 cells/ml; unit assumed", "description": "as §1"}, "[6]": {"tested_on": "Klebs. pneumoniae ATCC 10031", "experiment": "MIC (Table 4)", "type": "cell-based", "conditions": "10^8 cells/ml; unit assumed", "description": "as §1"}, "[7]": {"tested_on": "Salm enteritidis Gaertner", "experiment": "MIC (Table 4)", "type": "cell-based", "conditions": "10^8 cells/ml; unit assumed", "description": "as §1"}, "[8]": {"tested_on": "E. Coli NIHJ-JC2", "experiment": "MIC (Table 4)", "type": "cell-based", "conditions": "10^8 cells/ml; unit assumed", "description": "as §1"}, "[9]": {"tested_on": "Staph. aureus ATCC 6538p", "experiment": "MIC (Table 4)", "type": "cell-based", "conditions": "10^8 cells/ml; unit assumed", "description": "as §1"}}, "data": [{"smiles": "CC(=O)OCC1=C(C(=O)O)N2C(=O)[C@@H](NC(=O)CSc3nc(C[C@H](N)C(=O)O)c[nH]3)[C@H]2SC1", "note": "[Example 1, 7-β-[4-(2'-amino-2'-carboxy)ethylimidazol-2-yl-thioacetamido]-3-acetoxymethyl-3-cephem-4-carboxylic acid]", "values": [{"measurement": "concentration at 0.5 h", "setting": "[1]; 0.5 hr.", "value": 3600, "unit": "ng/mL"}, {"measurement": "concentration at 1 h", "setting": "[1]; 1 hr.", "value": 1600, "unit": "ng/mL"}, {"measurement": "concentration at 2 h", "setting": "[1]; 2 hrs.", "value": 800, "unit": "ng/mL"}, {"measurement": "concentration at 4 h", "setting": "[1]; 4 hrs.", "value": 500, "unit": "ng/mL"}, {"measurement": "MIC Value", "setting": "[2]", "value": 100, "unit": "µg/mL"}, {"measurement": "MIC Value", "setting": "[3]", "value": 100, "unit": "µg/mL"}, {"measurement": "MIC Value", "setting": "[4]", "value": 12.5, "unit": "µg/mL"}, {"measurement": "MIC Value", "setting": "[5]", "value": 12.5, "unit": "µg/mL"}, {"measurement": "MIC Value", "setting": "[6]", "value": 25, "unit": "µg/mL"}, {"measurement": "MIC Value", "setting": "[7]", "value": 100, "unit": "µg/mL"}, {"measurement": "MIC Value", "setting": "[8]", "value": 50, "unit": "µg/mL"}, {"measurement": "MIC Value", "setting": "[9]", "value": 3.1, "unit": "µg/mL"}]}]}
